Tests used:
Italian ryegrass [1] = assay: Test Example 4: herbicidal effect by soil treatment (Table 19, symbol K); assay type: in vivo, Italian ryegrass (Lolium multiflorum); conditions: amount of applied herbicide 320 g/ha
Outline: (§1)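 Seeds were sown in sterilized diluvial soil and covered with about 1.5 cm of soil. An emulsion formulation diluted with water to a predetermined herbicide amount was sprayed evenly onto the soil surface. Plants grew in a greenhouse at 25° C. to 30° C., and the effect was scored three weeks after application using criteria from an earlier test.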

southern crabgrass [2] = assay: Test Example 5: herbicidal effect by foliage application, plastic box (Table 20, symbol F); assay type: in vivo, southern crabgrass (Digitaria ciliaris); conditions: foliage application, 320 g/ha, evaluated three weeks after application
Outline: (§2)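 Plants sown in sterilized diluvial soil and grown 14 days in a greenhouse at 25° C to 30° C, then sprayed on the foliage with the compound's emulsion diluted in water to a predetermined herbicide amount. Injury to weeds and crops scored three weeks after application on a visual rating scale.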

green foxtail [3] = assay: Test Example 5: herbicidal effect by foliage application, plastic box (Table 20, symbol G); assay type: in vivo, green foxtail (Setaria viridis); conditions: foliage application, 320 g/ha, evaluated three weeks after application
Outline: as §2

false cleavers = assay: Test Example 4: herbicidal effect by soil treatment (Table 19, symbol Q); assay type: in vivo, false cleavers (Galium spurium); conditions: amount of applied herbicide 320 g/ha
Outline: as §1

redroot pigweed [4] = assay: Test Example 5: herbicidal effect by foliage application, plastic box (Table 20, symbol N); assay type: in vivo, redroot pigweed (Amaranthus retroflexus); conditions: foliage application, 320 g/ha, evaluated three weeks after application
Outline: as §2

blackgrass [5] = assay: Test Example 4: herbicidal effect by soil treatment (Table 19, symbol J); assay type: in vivo, blackgrass (Alopecurus myosuroides); conditions: amount of applied herbicide 320 g/ha
Outline: as §1

persian speedwell [6] = assay: Test Example 5: herbicidal effect by foliage application, plastic box (Table 20, symbol R); assay type: in vivo, Persian speedwell (Veronica persica); conditions: foliage application, 320 g/ha, evaluated three weeks after application
Outline: as §2

barnyard grass [7] = assay: Test Example 5: herbicidal effect by foliage application, plastic box (Table 20, symbol H); assay type: in vivo, barnyard grass (Echinochloa crus-galli); conditions: foliage application, 320 g/ha, evaluated three weeks after application
Outline: as §2

windgrass [8] = assay: Test Example 4: herbicidal effect by soil treatment (Table 19, symbol L); assay type: in vivo, windgrass (Apera spica-venti); conditions: amount of applied herbicide 320 g/ha
Outline: as §1

lambsquarters [9] = assay: Test Example 4: herbicidal effect by soil treatment (Table 19, symbol O); assay type: in vivo, lambsquarters (Chenopodium album); conditions: amount of applied herbicide 320 g/ha
Outline: as §1

wild oat [10] = assay: Test Example 4: herbicidal effect by soil treatment (Table 19, symbol I); assay type: in vivo, wild oat (Avena fatua); conditions: amount of applied herbicide 320 g/ha
Outline: as §1

chickweed [11] = assay: Test Example 5: herbicidal effect by foliage application, plastic box (Table 20, symbol P); assay type: in vivo, common chickweed (Stellaria media); conditions: foliage application, 320 g/ha, evaluated three weeks after application
Outline: as §2

southern crabgrass [12] = assay: Test Example 4: herbicidal effect by soil treatment (Table 19, symbol F); assay type: in vivo, southern crabgrass (Digitaria ciliaris); conditions: amount of applied herbicide 320 g/ha
Outline: as §1

windgrass [13] = assay: Test Example 5: herbicidal effect by foliage application, plastic box (Table 20, symbol L); assay type: in vivo, windgrass (Apera spica-venti); conditions: foliage application, 320 g/ha, evaluated three weeks after application
Outline: as §2

persian speedwell [14] = assay: Test Example 4: herbicidal effect by soil treatment (Table 19, symbol R); assay type: in vivo, Persian speedwell (Veronica persica); conditions: amount of applied herbicide 320 g/ha
Outline: as §1

barnyard grass [15] = assay: Test Example 3: herbicidal effect by foliage application, Wagner pot (Table 18, symbol H); assay type: in vivo, barnyard grass (Echinochloa crus-galli); conditions: amount of applied herbicide 320 g/ha
Outline: (§3)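 Plants were sown in alluvial soil held under 0.1–0.5 cm standing water and grown 14 days in a greenhouse at 25–30 °C. An emulsifiable formulation, water-diluted to the set dose, was then sprayed onto the foliage, and effects were scored three weeks later using previously defined criteria.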

velvetleaf [16] = assay: Test Example 4: herbicidal effect by soil treatment (Table 19, symbol M); assay type: in vivo, velvetleaf (Abutilon theophrasti); conditions: amount of applied herbicide 320 g/ha
Outline: as §1

rice flat sedge = assay: Test Example 3: herbicidal effect by foliage application, Wagner pot (Table 18, symbol E); assay type: in vivo, rice flat sedge (Cyperus iria); conditions: amount of applied herbicide 320 g/ha
Outline: as §3

redroot pigweed [17] = assay: Test Example 4: herbicidal effect by soil treatment (Table 19, symbol N); assay type: in vivo, redroot pigweed (Amaranthus retroflexus); conditions: amount of applied herbicide 320 g/ha
Outline: as §1

Italian ryegrass [18] = assay: Test Example 5: herbicidal effect by foliage application, plastic box (Table 20, symbol K); assay type: in vivo, Italian ryegrass (Lolium multiflorum); conditions: foliage application, 320 g/ha, evaluated three weeks after application
Outline: as §2

velvetleaf [19] = assay: Test Example 5: herbicidal effect by foliage application, plastic box (Table 20, symbol M); assay type: in vivo, velvetleaf (Abutilon theophrasti); conditions: foliage application, 320 g/ha, evaluated three weeks after application
Outline: as §2

green foxtail [20] = assay: Test Example 4: herbicidal effect by soil treatment (Table 19, symbol G); assay type: in vivo, green foxtail (Setaria viridis); conditions: amount of applied herbicide 320 g/ha
Outline: as §1

lambsquarters [21] = assay: Test Example 5: herbicidal effect by foliage application, plastic box (Table 20, symbol O); assay type: in vivo, lambsquarters (Chenopodium album); conditions: foliage application, 320 g/ha, evaluated three weeks after application
Outline: as §2

Chinese sprangletop = assay: Test Example 3: herbicidal effect by foliage application, Wagner pot (Table 18, symbol D); assay type: in vivo, chinese sprangletop (Leptochloa chinensis); conditions: amount of applied herbicide 320 g/ha
Outline: as §3

chickweed [22] = assay: Test Example 4: herbicidal effect by soil treatment (Table 19, symbol P); assay type: in vivo, common chickweed (Stellaria media); conditions: amount of applied herbicide 320 g/ha
Outline: as §1

wild oat [23] = assay: Test Example 5: herbicidal effect by foliage application, plastic box (Table 20, symbol I); assay type: in vivo, wild oat (Avena fatua); conditions: foliage application, 320 g/ha, evaluated three weeks after application
Outline: as §2

blackgrass [24] = assay: Test Example 5: herbicidal effect by foliage application, plastic box (Table 20, symbol J); assay type: in vivo, blackgrass (Alopecurus myosuroides); conditions: foliage application, 320 g/ha, evaluated three weeks after application
Outline: as §2

barnyard grass [25] = assay: Test Example 4: herbicidal effect by soil treatment (Table 19, symbol H); assay type: in vivo, barnyard grass (Echinochloa crus-galli); conditions: amount of applied herbicide 320 g/ha
Outline: as §1

CCCC(=O)Oc1c(C)nn(C)c(=O)c1-c1c(-c2ccc3c(c2)OCO3)sc2ccc(C)cc12 [2-157]
K: Italian ryegrass, herbicidal effect rating (Italian ryegrass [1]): 0 (Herbicidal rate of 5% or less (almost no effect))
herbicidal effect on F: southern crabgrass (criteria 0-5) (southern crabgrass [2]): 0 (Herbicidal rate of 5% or less (almost no effect))
herbicidal effect on G: green foxtail (criteria 0-5) (green foxtail [3]): 0 (Herbicidal rate of 5% or less (almost no effect))
Q: false cleavers, herbicidal effect rating (false cleavers): 0 (Herbicidal rate of 5% or less (almost no effect))
herbicidal effect on N: redroot pigweed (criteria 0-5) (redroot pigweed [4]): 3 (Herbicidal rate of 40% or more and less than 70%)
J: blackgrass, herbicidal effect rating (blackgrass [5]): 0 (Herbicidal rate of 5% or less (almost no effect))
herbicidal effect on R: persian speedwell (criteria 0-5) (persian speedwell [6]): 4 (Herbicidal rate of 70% or more and less than 90%)
herbicidal effect on H: barnyard grass (criteria 0-5) (barnyard grass [7]): 0 (Herbicidal rate of 5% or less (almost no effect))
L: windgrass, herbicidal effect rating (windgrass [8]): 0 (Herbicidal rate of 5% or less (almost no effect))
O: lambsquarters, herbicidal effect rating (lambsquarters [9]): 0 (Herbicidal rate of 5% or less (almost no effect))
I: wild oat, herbicidal effect rating (wild oat [10]): 0 (Herbicidal rate of 5% or less (almost no effect))
herbicidal effect on P: chickweed (criteria 0-5) (chickweed [11]): 0 (Herbicidal rate of 5% or less (almost no effect))
F: southern crabgrass, herbicidal effect rating (southern crabgrass [12]): 0 (Herbicidal rate of 5% or less (almost no effect))
herbicidal effect on L: windgrass (criteria 0-5) (windgrass [13]): 0 (Herbicidal rate of 5% or less (almost no effect))
R: persian speedwell, herbicidal effect rating (persian speedwell [14]): 3 (Herbicidal rate of 40% or more and less than 70%)
herbicidal effect on H: barnyard grass (barnyard grass [15]): 3 (Herbicidal rate of 40% or more and less than 70%)
M: velvetleaf, herbicidal effect rating (velvetleaf [16]): 0 (Herbicidal rate of 5% or less (almost no effect))
herbicidal effect on E: rice flat sedge (rice flat sedge): 0 (Herbicidal rate of 5% or less (almost no effect))
N: redroot pigweed, herbicidal effect rating (redroot pigweed [17]): 0 (Herbicidal rate of 5% or less (almost no effect))
herbicidal effect on K: Italian ryegrass (criteria 0-5) (Italian ryegrass [18]): 0 (Herbicidal rate of 5% or less (almost no effect))
herbicidal effect on M: velvetleaf (criteria 0-5) (velvetleaf [19]): 0 (Herbicidal rate of 5% or less (almost no effect))
G: green foxtail, herbicidal effect rating (green foxtail [20]): 0 (Herbicidal rate of 5% or less (almost no effect))
herbicidal effect on O: lambsquarters (criteria 0-5) (lambsquarters [21]): 0 (Herbicidal rate of 5% or less (almost no effect))
herbicidal effect on D: Chinese sprangletop (Chinese sprangletop): 0 (Herbicidal rate of 5% or less (almost no effect))
P: chickweed, herbicidal effect rating (chickweed [22]): 4 (Herbicidal rate of 70% or more and less than 90%)
herbicidal effect on I: wild oat (criteria 0-5) (wild oat [23]): 0 (Herbicidal rate of 5% or less (almost no effect))
herbicidal effect on J: blackgrass (criteria 0-5) (blackgrass [24]): 0 (Herbicidal rate of 5% or less (almost no effect))
H: barnyard grass, herbicidal effect rating (barnyard grass [25]): 0 (Herbicidal rate of 5% or less (almost no effect))

— patent US20230085307A1, “PYRIDAZINONE COMPOUND AND HERBICIDE” (NISSAN CHEMICAL CORPORATION, priority 2019, published 2023)
